# Data: PubChem BioAssay (NCI)
# Values joined by “and” are separate entries in the source; they are usually repeats but may differ in a detail not shown here. Equal entries are not always repeated.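 All cell lines were grown in 96-well plates and treated with compound for 48 hours. GI50 marks 50% less growth. TGI is the concentration that stops growth completely.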
# Assays:
# Experiment in all cases: NCI anticancer screen, dose series, 48 h
# CAKI-1 renal = tested on: CAKI-1 renal
# HCT-116 colon = tested on: HCT-116 colon
# HOP-92 NSCLC = tested on: HOP-92 NSCLC
# KM12 colon = tested on: KM12 colon
# NCI-H226 lung = tested on: NCI-H226 lung
# SF-539 CNS = tested on: SF-539 CNS
# SN12C renal = tested on: SN12C renal
# SNB-75 CNS = tested on: SNB-75 CNS
# UO-31 renal = tested on: UO-31 renal
# A498 renal = tested on: A498 renal
SMILES,GI50 (CAKI-1 renal) [µM],TGI (CAKI-1 renal) [µM],GI50 (HCT-116 colon) [µM],TGI (HCT-116 colon),GI50 (HOP-92 NSCLC) [µM],TGI (HOP-92 NSCLC),GI50 (KM12 colon) [µM],TGI (KM12 colon) [µM],GI50 (NCI-H226 lung) [µM],TGI (NCI-H226 lung) [µM],GI50 (SF-539 CNS) [µM],TGI (SF-539 CNS),GI50 (SN12C renal) [µM],TGI (SN12C renal) [µM],GI50 (SNB-75 CNS) [µM],TGI (SNB-75 CNS) [µM],GI50 (UO-31 renal),TGI (UO-31 renal),GI50 (A498 renal) [µM],TGI (A498 renal) [µM]
Cn1cc(-c2csc(-c3ccc(Cl)cc3)n2)c2cccnc21,6.99,25.6,12.8,25.4 µM,2.54,19.1 µM,13,27.6,14.8,43.6,14.8,29.5 µM,14.8,32.5,20,54.3,13.6 µM,38.6 µM,–,–
COc1cc(C2CC(c3ccc(Cl)cc3)=NN2C(C)=O)ccc1Oc1ccnc2cc(Cl)ccc12 (centres undefined),> 100,> 100,–,–,2.32,62.6 µM,> 100,> 100,–,–,–,–,> 100,> 100,1.66,7.76,–,–,4.09,> 100
O=C(O)C1CC2C=CCC(C2)C1 (centres undefined),–,> 100,–,> 100 µM,–,> 100 µM,–,> 100,–,> 100,–,–,–,–,–,> 100,–,> 100 µM,–,–
N.N.N.N.O=S([O-])[O-].[Co+3].[N-]=[N+]=[N-],–,–,> 100,> 100 µM,> 100,> 100 µM,> 100,> 100,–,–,> 100,> 100 µM,> 100,> 100,70.4,> 100,> 100 µM,> 100 µM,> 100,> 100
O=C(O)C(Cc1ccccc1)N1C(=O)/C(=C/C(Cl)=C/c2ccc([N+](=O)[O-])cc2)SC1=S (centres undefined),2.28,5.09,2.01,5.47 µM,2.35,5.71 µM,2.06,4.35,1.58,3.27,–,–,–,–,1.96,5.37,1.59 µM,3.1 µM,1.65,3.24
COc1cc(N)c(Cl)cc1C(=O)N[C@@H]1CCN(CCCOc2ccc(F)cc2)C[C@@H]1OC,> 100,> 100,41.8,> 100 µM,–,–,33.3,> 100,> 100,> 100,66.2,> 100 µM,> 100,> 100,> 100,> 100,27.9 µM,> 100 µM,–,–
CN(C)C(=S)/N=c1\ssc(=Nc2ccccc2)n1-c1ccccc1,–,75.6,–,–,–,46 µM,–,–,–,26.7,–,32 µM,–,> 100,–,36.5,–,> 100 µM,–,> 100
COC(=O)c1c(C(=O)O)c(-c2ccccc2)c(-c2ccccc2)c(-c2ccccc2)c1-c1ccccc1,> 100,> 100,77.9,> 100 µM,> 100,> 100 µM,> 100,> 100,> 100,> 100,> 100,> 100 µM,> 100,> 100,47.6,> 100,14.7 µM,43.5 µM,–,–
Nc1ccc(C(=O)N/C(=C\c2ccc3c(c2)OCO3)c2nc3ccccc3s2)cc1,–,29.7,–,–,–,24.7 µM,–,28,–,–,–,31.4 µM,–,25.6,–,–,–,29 µM,–,–
COC(=O)N[C@@H](C)CNc1nccc(-c2cn(C(C)C)nc2-c2cc(Cl)cc(NS(C)(=O)=O)c2F)n1,4.95,> 100,0.662,> 100 µM,–,–,70.1,> 100,> 100,> 100,62.6,> 100 µM,> 100,> 100,0.51,> 100,4.57 µM,> 100 µM,0.336,> 100
CCOC(=N)CC(=O)Nc1ccccc1CC,–,> 100,–,> 100 µM,–,–,–,> 100,–,> 100,–,> 100 µM,–,> 100,–,> 100,–,> 100 µM,–,> 100
COc1ccc(OCC(=O)O)c2c1CCC(C)C2=O (centres undefined),–,> 100,–,> 100 µM,–,–,–,> 100,–,–,–,> 100 µM,–,> 100,–,–,–,> 100 µM,–,> 100
c1ccc(N2CCN(CCN3CCc4c([nH]c5ccccc45)C3c3cccnc3)CC2)cc1 (centres undefined),–,> 100,–,> 100 µM,–,92.5 µM,–,> 100,–,–,–,> 100 µM,–,> 100,–,9.7,–,> 100 µM,–,> 100
COc1ccccc1/C=C(\NC(=O)c1ccccc1)c1nc2ccccc2[nH]1,–,> 100,–,> 100 µM,–,72.5 µM,–,> 100,–,–,–,> 100 µM,–,> 100,–,> 100,–,> 100 µM,–,> 100
Fc1ccc(-c2ncn(C3CCNCC3)c2-c2ccnc(Oc3ccc(Cl)cc3)n2)cc1,5.49,> 16.7,3.97,7.65 µM,–,–,4.51,8.79,–,–,4.2,8.39 µM,3.67,7.17,3.4,14.3,3.38 µM,12.2 µM,3.67,21.4
COc1ccc(CN2c3ccccc3Sc3ccccc32)cc1O,0.472,17.7,0.386,13.1 µM,0.502,17.5 µM,–,–,12.2,35,0.27,0.823 µM,1.29,22.3,0.18,13.3,0.751 µM,18.9 µM,2.71,19
C[C@@H]1CC2(C[C@@H](C)C3[C@@H](CC4(C)CCCC5C6=CC(O)(CC[C@]34C)OC6=CC(=O)OC5(C)C)O2)OC1=O (some centres undefined),–,–,–,> 100 µM,–,> 100 µM,–,> 100,–,> 100,–,> 100 µM,–,> 100,–,> 100,–,> 100 µM,–,–
COC(OC)c1cccnc1C,–,> 100,–,> 100 µM,–,> 100 µM,–,> 100,–,–,–,> 100 µM,–,> 100,–,> 100,–,> 100 µM,–,–

SMILES,GI50 (CAKI-1 renal) [µM],TGI (CAKI-1 renal) [µM],GI50 (HCT-116 colon) [µM],TGI (HCT-116 colon),GI50 (HOP-92 NSCLC) [µM],TGI (HOP-92 NSCLC),GI50 (KM12 colon) [µM],TGI (KM12 colon) [µM],GI50 (NCI-H226 lung) [µM],TGI (NCI-H226 lung) [µM],GI50 (SF-539 CNS) [µM],TGI (SF-539 CNS),GI50 (SN12C renal) [µM],TGI (SN12C renal) [µM],GI50 (SNB-75 CNS) [µM],TGI (SNB-75 CNS) [µM],GI50 (UO-31 renal),TGI (UO-31 renal),GI50 (A498 renal) [µM],TGI (A498 renal) [µM]
CC(NC1CCCC[C@@H]1O)c1ccccc1 (some centres undefined),–,> 100,–,> 100 µM,–,> 100 µM,–,> 100,–,> 100,–,–,–,> 100,–,> 100,–,> 100 µM,–,–
O=C1c2ccccc2-c2c1c1ccccc1c(=O)n2CCNCCNCCNCCNCCn1c2c(c3ccccc3c1=O)C(=O)c1ccccc1-2,0.26,2.93,0.133,–,0.939,2.5 µM,0.655,5.32,0.368,1.95,0.0446,0.314 µM,–,–,–,–,0.661 µM,2.09 µM,–,–
CCCCC[C@H]1C/C=C2/C(=O)C=C[C@@H]2C/C=C\CCCC(=O)O1,–,–,0.0905,0.232 µM,0.577,2.18 µM,–,–,0.0904,0.18,0.16,0.67 µM,0.18,2.44,0.227,1.98,0.0902 µM,0.171 µM,0.193,0.878
Cc1cc(O)c2c(c1)OC1(C)CCC3C(C)(C)CCCC34COC2C14 (centres undefined),–,32.9,–,27.3 µM,–,–,–,35.3,–,31,–,23.8 µM,–,30.8,–,–,–,33.2 µM,–,26
COc1ccc(C2=NNC(c3sc(Cl)nc3Cl)C2)cc1 (centres undefined),11.8,39.4,3.39,14.9 µM,–,–,5.56,19.8,2.85,> 100,4.58,32 µM,4.02,16.7,36.6,> 100,6.62 µM,20.3 µM,33.1,> 100
OC(Cc1cccc2ccccc12)CN1CCC(c2ccccc2)CC1 (centres undefined),–,24.5,–,28.7 µM,–,27.4 µM,–,33.7,–,–,–,31.1 µM,–,30.6,–,25.3,–,0.176 µM,–,–
CSCc1ncc(-c2ccc(C(F)(F)F)cc2)c(NC2CCCCCC2)n1,> 10,> 10,> 10,> 10 µM,–,–,> 10,> 10,> 10,> 10,> 10,> 10 µM,> 10,> 10,> 10,> 10,> 10 µM,> 10 µM,> 10,> 10
CN1C2C=CC(=O)C1C(C#N)C2 (centres undefined),–,–,–,54.9 µM and > 100 µM,–,57.7 µM and 93.5 µM,–,> 100,97.7,> 100,–,84 µM and > 100 µM,–,> 100,–,–,19.1 µM and 39.8 µM,39 µM and > 100 µM,–,> 100
NC(=S)c1cccc(C2Nc3ccccc3O2)c1 (centres undefined),–,> 100,–,> 100 µM,–,> 100 µM,–,> 100,–,> 100,–,> 100 µM,–,12.1,–,> 100,–,> 100 µM,–,–
S=C(Nc1ccc(-c2nc3ccccc3s2)cc1)Nc1ccc(-c2nc3ccccc3s2)cc1,13.5,48.1,16.6,33.9 µM,15.3,53.6 µM,20.1,> 100,14,38.8,16.6,42.4 µM,16.7,44.5,10.4,36.4,12.4 µM,34 µM,–,–
OC[C@H]1N[C@H](CO)[C@@H](O)[C@H]1O,–,> 100,–,> 100 µM,–,–,–,> 100,–,> 100,–,> 100 µM,–,> 100,–,> 100,–,> 100 µM,–,> 100
COc1c(OC2OC(C)C(O)C(O)C2O)c(OC)c2oc(-c3ccc(O)cc3)cc(=O)c2c1O (centres undefined),27.6,> 100,32.4,> 100 µM,–,–,39.7,> 100,30.6,> 100,34.3,90.5 µM,27.8,> 100,20.6,87.1,22.8 µM,> 100 µM,35.4,> 100
COc1c2c(c(O)c3c4c(c(C)cc13)C1OC3(C(OC)OC5CC(C)(O)C(OC6CC(C)(O)C(O)C(C)O6)C(C)O5)OC1C(OC)(O4)C31CO1)C(=O)C(O)CC2OC1CC(C)(O)C(OC(C)=O)C(C)O1 (centres undefined),–,2.71,–,5.74 µM,–,< 0.01 µM,–,< 0.01,–,< 0.01,–,< 0.01 µM,–,0.113,–,< 0.01,–,0.154 µM,–,–
NCCOCCOCC(=O)O,–,> 100,–,> 100 µM,–,> 100 µM,–,> 100,–,> 100,–,> 100 µM,–,> 100,–,> 100,–,> 100 µM,–,–
C=C(CN1CCc2ccccc2C1)c1ccc(CCCC(=O)Nc2ccccc2N)cc1,17.9,82.5,12.8,33.3 µM,–,–,11.1,27.2,28.8,94.6,11.4,24 µM,13,28.4,3.33,27.7,2.7 µM,17.7 µM,12.6,26.1
COc1cc(C=NCC(=O)CSC(c2ccccc2)c2ccccc2)ccc1O,16.6,43.2,8.69,21 µM,10,21.7 µM,11.9,26.3,16.8,38.5,14.8,29.1 µM,14.1,28.1,13,25.9,12.7 µM,29.1 µM,–,–
O=C(NCCCN1CCN(CCCNC(=O)Nc2cc(Cl)ccc2Cl)CC1)Nc1cc(Cl)ccc1Cl,–,> 100,–,> 100 µM,–,> 100 µM,–,> 100,–,> 100,–,> 100 µM,–,> 100,–,82,–,> 100 µM,–,–
CCNc1ccc2c(c1)C(=O)N(OS(C)(=O)=O)C2=O,–,> 100,–,> 100 µM,–,> 100 µM,–,> 100,–,97.1,–,51.5 µM,–,> 100,–,–,–,> 100 µM,–,> 100
